Experimental data published in patent US20040198716A1, “Cysteine protease inhimbitors” (priority 2001, published 2004).

Key:
HeLa-H1 cells = experiment: Toxicity in uninfected cells of the cell culture 3C-protease assay; type: cell-based; parameters: key to TC50: —: the hyphens indicate no value was able to be calculated (i.e. the drug response did not cross the 50% point); conditions: compound-treated uninfected HeLa-H1 cells, 48 hours, alamarBlue; dilution series 250-0.98 μM; several values per compound = repeat determinations
Procedure: In this assay, 96 well micro titer plates were seeded with 10^4 HeLa-H1 (ATCC) cells per well and incubated in DMEM+10% FBS (Gibco) for 24 hours at 37° C., saturated humidity and 5% CO2. Human Rhinovirus serotype 1A (ATCC) were titered to produce a 30% cell kill and added to some wells of a 96 well plate, other wells were mock infected with media only, followed by incubation at 33° C., saturated humidity and 5% CO2 for 1 hour. Compounds were dissolved in DMSO, diluted in DMEM and added in a 9 step 2-fold dilution series (250, 125, 62.5, 31.25, 15.63, 7.81, 3.91, 1.95, 0.98 μM) 1 hour after virus treatment. Plates were incubated for 48 hours at 33° C., saturated humidity and 5% CO2 in a final volume of 100 μL FBS free DMEM. Cell survival was measured by the addition of 10 μL of alamarBlue™ (BioSource), incubation at 33° C. for 45 minutes and reading in a fluorescence plate reader, excitation: 544 nm, emission: 590 nm. The inhibitory concentration 50% (IC50) was calculated as the concentration of compound that increased the percentage fluorescence in the compound-treated virus-infected cells to 50% of that produced by compound-free, uninfected cells. The toxicity concentration 50% (TC50) was calculated as the concentration of compound that decreased the percentage fluorescence in the compound-treated, uninfected cells to 50% of the compound-free, uninfected cells. The therapeutic index (Ti) was calculated by dividing the […].

α-chymotrypsin = α-chymotrypsin (Bos taurus, UniProt P00766, DEL14-15/DEL147-148); experiment: Cross-reactivity protease inhibition assay (QuantiCleave), chymotrypsin; type: biochemical; conditions: ratio Abs450nm with inhibitor / without inhibitor; 100 μM compound
Procedure: (§1) To evaluate whether inhibition was specific to caspase-3 or applicable to other cysteine proteases or other proteases, inhibitor molecules were assayed for their capacity to inhibit additional non-caspase proteases. Three proteases, TPCK-trypsin, α-chymotrypsin and papain, were used to test for protease inhibition cross-reactivity. Protease inhibition assays were performed in 96-well flat-bottomed micro-titer plates with the QuantiCleave™ protease assay kit (Pierce, Rockford, Ill.) according to the manufacturer's instructions. Briefly, the assay conditions contained 100 μM compound, 2 mg/mL of succinylated-casein and 0.15 mg/mL of the protease. The assay incubated in a final volume of 150 μLs 0.05 M sodium borate pH 8.5 buffer (NaB-buffer) for 20 minutes at 25° C. After the protease reaction, 50 μLs of a trinitrobenzenesulfonic acid (TNBSA) solution (1:15, TNBSA:NaB-buffer) was added to each reaction and further incubated for 20 minutes at 25° C. Absorbance values at 450 nm were read in an Emax (Molecular Devices, Sunnyvale, Calif.) micro plate reader. Appropriate controls were performed, including known inhibitors (soybean trypsin inhibitor, aminoethyl-benzenesulfonic acid and leupeptin) for the proteases.
(§2) Relative activities in the presence of inhibitor were calculated by taking the ratio of absorbance for a reaction containing inhibitor to the absorbance for a reaction without inhibitor. Significant inhibition was determined by testing the null hypothesis of equivalence between the mean absorbance of reactions containing inhibitor and the mean absorbance of reactions without inhibitor (2 tailed t-test, 2 df).
(§3) The results are given in Table V in terms of cross-reactivities, relative activity and significant difference of 100 μM protease inhibitors on the proteases trypsin, chymotrypsin and papain.

papain = molecular target: T1, papain (Carica papaya, UniProt P00784); experiment: Cross-reactivity protease inhibition assay (QuantiCleave), papain; type: biochemical; conditions: ratio Abs450nm with inhibitor / without inhibitor; 100 μM compound
T1 sequence (P00784 134-345): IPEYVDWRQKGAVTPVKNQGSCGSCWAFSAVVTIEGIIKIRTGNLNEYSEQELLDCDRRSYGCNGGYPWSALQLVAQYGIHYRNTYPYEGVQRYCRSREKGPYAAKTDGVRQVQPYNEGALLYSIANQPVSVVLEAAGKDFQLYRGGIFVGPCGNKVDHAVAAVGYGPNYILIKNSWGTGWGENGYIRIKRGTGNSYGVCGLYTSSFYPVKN
Procedure: as §1, §2, §3

TPCK-trypsin = molecular target: T2, TPCK-trypsin (Bos taurus, UniProt P00760); experiment: Cross-reactivity protease inhibition assay (QuantiCleave), trypsin; type: biochemical; conditions: ratio Abs450nm with inhibitor / without inhibitor; 100 μM compound
T2 sequence (P00760 24-246): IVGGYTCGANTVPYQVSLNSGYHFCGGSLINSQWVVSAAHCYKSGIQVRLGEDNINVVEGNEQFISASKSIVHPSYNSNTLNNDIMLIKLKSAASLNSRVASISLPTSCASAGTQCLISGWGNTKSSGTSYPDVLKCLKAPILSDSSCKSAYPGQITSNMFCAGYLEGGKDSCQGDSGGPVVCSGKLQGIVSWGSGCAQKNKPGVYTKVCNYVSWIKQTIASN
Procedure: as §1, §2, §3

[1] = molecular target: T3, human recombinant caspase-3 (Homo sapiens, UniProt P42574); experiment: In vitro high throughput caspase-3 assay; type: biochemical; conditions: for Percent Activity: percentage of the positive control, 20-250 μM test compound, lower = better inhibition, negative = better than control caspase inhibitor; for Caspase-3 Activity: relative activity as a fraction, values match Table II percent activity divided by 100; for Ki: calculated from IC50 according to Equation 1, read-out: Ki(app); for IC50: fixed substrate concentration of 55 μM, inhibitors 75 to 0.067 μM in duplicate
T3 construct: purchased Sigma
T3 sequence (P42574 29-175 limits assumed): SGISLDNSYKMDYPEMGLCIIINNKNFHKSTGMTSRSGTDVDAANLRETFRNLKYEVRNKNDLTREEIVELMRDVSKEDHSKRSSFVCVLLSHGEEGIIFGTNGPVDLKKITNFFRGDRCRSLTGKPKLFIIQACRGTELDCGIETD
T3 sequence (P42574 176-277 limits assumed): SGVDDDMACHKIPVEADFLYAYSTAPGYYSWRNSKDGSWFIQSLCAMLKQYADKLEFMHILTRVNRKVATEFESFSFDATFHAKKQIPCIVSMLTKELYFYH
Procedure: Purified Human recombinant caspase-3, fluorescence labeled substrate (Acetyl-Asp-Glu-Val-Asp-7-amino-4-trifluoromethyl coumarin), and known inhibitor (Z-Asp-Glu-Val-Asp-fluoromethyl ketone) can be purchased from Sigma Chemical Co. (St. Louis, Mo.). The enzyme reactions are carried out at room temperature in 10 mM PIPES pH=7.4, 2 mM EDTA, 0.1% CHAPS, 5 mM DTT reaction buffer. Each well on the 96 well plate contains the above reaction buffer plus 55 μM fluorescence labeled substrate, 0.125 μg caspase-3, and 20-250 μM test compound. Positive and negative controls are present on each assay plate. A standard curve is generated using 7-amino-4-trifluoromethyl coumarin in the concentration range from 0.15 μM to 5.0 μM. The reactions are preferably read every 0.5 hours using a fluorescence microtiter plate reader set for 390 nm excitation and 538 nm emission for the first 4 hours after which the plates are left at room temperature overnight. One reading is taken the next morning as a final measurement.
To determine the caspase inhibitory activity of these compounds, the in vitro high throughput caspase-3 assay presented herein was utilized. Purified human recombinant caspase-3, fluorescence labeled substrate (Acetyl-Asp-Glu-Val-Asp-7-amino-4-trifluoromethyl coumarin), and known inhibitor (Z-Asp-Glu-Val-Asp-fluoromethyl ketone) were purchased from Sigma. The enzyme reactions were carried out at room temperature in 10 mM PIPES pH=7.4, 2 mM EDTA, 0.1% CHAPS, 5 mM DTT reaction buffer. Each well on the 96 well plate contained the above reaction buffer plus 55 μM fluorescence labeled substrate, 0.125 μg caspase-3, and 20-250 μM test compound. Positive and negative controls were present on each assay plate. A standard curve was generated using 7-amino-4-trifluoromethyl coumarin in the concentration range from 0.15 μM to 5.0 μM. The reactions were read every 0.5 hours using a fluorescence microtiter plate reader set for 390 nm excitation and 538 nm emission for the first 4 hours after which the plates were left at room temperature overnight. One reading was taken the next morning as a final measurement.
Ki determinations were carried out using the above assay system. […] Ki(app) was calculated according to Equation 1: [formula]
The concentration of inhibitors ranged from 75 to 0.067 μM with each inhibitor concentration assayed in duplicate. The Km for the substrate was determined from a standard Lineweaver-Burke plot.

[2] = molecular target: T4, Human Rhinovirus serotype 1A 3C Protease (Human rhinovirus 1A, UniProt P23008); experiment: 3C Protease Biochemical Assay (FRET); conditions: 30° C., 2-6uM substrate, 416 nM 3CP
T4 construct: used to clone the 3C Protease into the expression vector pET16-b; made in house; host or cells: E. coli BL21-DE3-pLys-S
T4 sequence (P23008 1515-1697): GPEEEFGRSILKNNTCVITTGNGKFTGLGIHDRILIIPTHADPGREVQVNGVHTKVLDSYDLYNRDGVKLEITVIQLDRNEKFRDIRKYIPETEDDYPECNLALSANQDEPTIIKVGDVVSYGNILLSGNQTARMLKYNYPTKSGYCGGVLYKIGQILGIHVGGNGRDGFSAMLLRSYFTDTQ
Procedure: Human Rhinovirus serotype 1A (ATCC) was used to clone the 3C Protease into the expression vector pET16-b and transformed for production into the E. coli strain BL21-DE3-pLys-S. 3C Protease expression was induced with 1 mM IPTG at 25° C. and purified from the soluble protein extract by chromatography on a SourceQ (Pharmacia) followed by gel filtration. HRV 3CP activity was measured by fluorescence resonance energy transfer using a dimodified decapeptide substrate MOC-[…]DNP-NH2 (7-methoxy coumarin-4-acetic acid fluorochrome and dinitrophenol quencher) with a Km value of 16.8 μM. Inhibition was measured as a change in initial velocity (V0) as a function of inhibitor (I) concentration and substrate (S) concentration. […] Fluorescence was monitored by excitation at 328 nm and emission at 393 nm with 10 nm cutoffs. Data were analyzed with the nonlinear regression analysis program EnzFitter (BioSoft) with the equation:
Ki=(I/((VmaxxS)/V0)/Ks)−I−S
Substrate concentrations used were lower than the Km of the substrate (16.8 uM) so no corrections for an S/Km term were used.

COc1cccc2occc(=O)c12 [cpi0409]
TC50 (HeLa-H1 cells): —, and —

COC(=O)CCNc1ccc(O)c2c1C(=O)c1ccccc1C2=O [cpi0136.NS131731]
TC50 (HeLa-H1 cells): —, and —

NCCc1ccc(S(=O)(=O)F)cc1 [AEBSF, reference compound]
α-Chymotrypsin Activity (α-chymotrypsin): 0.466

CC(=O)N[C@@H](CC(C)C)C(=O)N[C@@H](CC(C)C)C(=O)N[C@H](C=O)CCCNC(=N)N [Leupeptin, leupeptin, reference compound]
Papain Activity (papain): 0.095

O=c1cc(-c2ccccc2)oc2cc(O)cc(O)c12 [cpi0124]
α-Chymotrypsin Activity (α-chymotrypsin): 1.029
TPCK-Trypsin Activity (TPCK-trypsin): 1.075
Papain Activity (papain): 0.445
Percent Activity [1]: 51.49%
Caspase-3 Activity [1]: 0.515

CC(C)=CCC1=C(O)C(=O)c2ccccc2C1=O [cpi0133]
α-Chymotrypsin Activity (α-chymotrypsin): 1.081
TPCK-Trypsin Activity (TPCK-trypsin): 1.196
Papain Activity (papain): 0.897
Percent Activity [1]: 48.29%
Caspase-3 Activity [1]: 0.483

O=C1C=CC(=O)c2c(O)ccc(O)c21 [cpi0131]
α-Chymotrypsin Activity (α-chymotrypsin): 0.915
Ki [2]: 307 µM
TPCK-Trypsin Activity (TPCK-trypsin): 0.819
Papain Activity (papain): 0.505
Percent Activity [1]: −1.78%
Caspase-3 Activity [1]: −0.0178

O=C1C=CC(=O)c2ccccc21 [cpi0126]
Ki [2]: 515 µM
Ki [1]: 0.642 µM
IC50 [1]: 4.04 µM
Percent Activity [1]: −0.30%

Cc1cc(C(=O)NN)c2cc(Br)ccc2n1 [cpi0157.C3]
Ki [1]: 131 µM
IC50 [1]: 825 µM
Percent Activity [1]: 36.41%

O=C1C(Cl)=C(Cl)C(=O)c2ccccc21 [cpi0128]
Ki [1]: 1.05 µM
IC50 [1]: 6.62 µM
Percent Activity [1]: 1.67%

O=C1C(Br)=C(Br)C(=O)c2c1ccc(Br)c2O [cpi0139]
Ki [2]: 154 µM
Ki [1]: 69.8 µM
IC50 [1]: 440 µM

CC1=CC(=O)c2ccccc2C1=O [cpi0127]
Ki [2]: 242 µM
Ki [1]: 0.694 µM
IC50 [1]: 4.37 µM
Percent Activity [1]: 1.32%

O=C1c2ccccc2-c2onc3ccc(Oc4c(F)c(F)c(F)c(F)c4F)c1c23 [cpi0156.0042]
Percent Activity [1]: 11.08%

O=C1C(Br)=CC(=O)c2c(O)cccc21 [cpi0141]
Ki [2]: 73 µM
Ki [1]: 4.91 µM
IC50 [1]: 30.9 µM

N#CC1=C(N)SC(N)=C(C#N)C1c1cccc(F)c1 [cpi0157.F9]
Ki [1]: 39.9 µM
IC50 [1]: 251 µM
Percent Activity [1]: 31.50%

Nc1ccc(O)c2c1C(=O)c1ccccc1C2=O [cpi0136.0007]
Ki [1]: 1.77 µM
IC50 [1]: 11.2 µM
Percent Activity [1]: −0.8437%

O=C(COc1cc(O)c2c(=O)cc(-c3ccccc3)oc2c1)OCc1ccccc1 [cpi0136.0025]
Ki [1]: 40.5 µM
IC50 [1]: 255 µM
Percent Activity [1]: 54.1256%

CNc1cc(Nc2ccccc2)c2c3c(onc13)-c1ccccc1C2=O [cpi0156.0051]
Percent Activity [1]: 6.782%

O=C(NN=Cc1ccccc1)C12CC3CC(C1)CC(C(=O)NN=Cc1ccccc1)(C3)C2 [cpi0157.B2]
Ki [1]: 52.8 µM
Percent Activity [1]: 50.76%

O=C1C(Cl)=C(N2CCOCC2)C(=O)c2ccccc21 [cpi0156.0044]
Percent Activity [1]: −1.376%

B1: STI: Soybean Trypsin Inhibitor, known inhibitor control (protein, UniProt P01070 25-205, looked up)
Trypsin inhibitor A: DFVLDNEGNPLENGGTYYILSDITAFGGIRAAPTGNERCPLTVVQSRNELDKGIGTIISSPYRIRFIAEGHPLSLKFDSFAVIMLCVGIPTEWSVVEDLPEGPAVKIGENKDAMDGWFRLERVSDDEFNNYKLVFCPQQAEDDKCGDIGISIDHDDGTRRLVVSKNKPLVVQFQKLDKESL
TPCK-Trypsin Activity (TPCK-trypsin): 0.017
